pKi: −log10 of the molar value.
Tests used:
human CB2 receptor = human CB2 receptor (Homo sapiens (Human), UniProt P34972); assay: Membrane competition binding assay with [3H]-CP 55,940, CHO-CB2 membranes
Description: (§1) The cDNA clones for human HA-tagged CB1 and CB2 receptors were obtained from the Missouri S&T cDNA Resource Center (www.cdna.org) in cloning vector pcDNA3.1+. The vector containing the human CB2 receptor was transfected directly into CHO-KI cells obtained from ATCC. The HA-tagged human CB1 receptor sequence was subcloned into the pef4-V5-HisA vector with Kpn1 and Pme1 restriction enzymes and subsequently transfected into CHO-K1 cells. Cells were clonally isolated by limited dilution and screened by immunocytochemistry for expression of the HA tag.
(§2) Cells were maintained in DMEM/F12 media supplemented with 10% fetal bovine serum (FBS), 100 units/ml penicillin and 100 μg/ml streptomycin and 2 mM L-glutamine. Transfected cell lines were maintained with additional 150 ug/ml zeocin for pEF HA-CB1 transfected cells and 500 ug/ml G-418 for pcDNA HA-CB2 transfected cells (all reagents obtained from Invitrogen).
(§3) Cells were grown to confluence and harvested in ice cold phosphate buffered saline with 5 mM EDTA. Cells were spun at 200×g for 10 min and frozen at −80° C. until required. Cell pellets were thawed with cold 0.32 M sucrose and homogenised with a glass homogeniser. The homogenate was spun at 1000×g for 10 min at 4° C. and the supernatant spun in a Sorvall ultracentrifuge for 30 min at 100,000×g. The pellet was then washed in ice cold water and re-spun twice more. The final pellet was resuspended in 50 mM Tris pH 7.5, 0.5 mM EDTA. Protein concentration was determined using the Dc protein assay kit (BioRad, Hercules, Calif., USA).
(§4) Membranes (5-10 μg) were incubated with radioligand and a range of concentrations of test compounds in binding buffer (50 mM Tris pH 7.4, 5 mM MgCl2, 1 mM EDTA) with 0.5% (w/v) bovine serum albumin (BSA) (ICP Bio, New Zealand), at 30° C. for 60 min. Stock solutions of putative cannabinoid ligands were prepared in dimethyl sulfoxide to a concentration of 10 mM. Six different final concentrations of compounds were used ranging from 50 μM to 0.1 nM. […] Assays were terminated by addition of 2 ml ice cold binding buffer and filtration through GF/C filters (Whatman) pre-soaked in cold binding buffer, followed by two washes in the same buffer.
(§5) Radioactivity was determined by incubation of filters with Irgasafe scintillation fluid (PerkinElmer) and scintillation counting in a Wallac Trilux using Microbeta Trilux software. Data was analysed using the Prism 4.02 programme (GraphPad Software, San Deigo, Calif., USA).
(§6) All data was analyzed using Prism 4.02. For binding data the Ki was determined from IC50 values derived from competition binding data fitted with one site competition non-linear regression analysis by Prism 4.02 using the Kd values reported above.

closed head injury (CHI) = assay: Closed head injury (CHI) model, neurological severity score, Sabra mice; format: in vivo; conditions: for most effective dose (recovery, ΔNSS): Sabra mice, i.p. 1 h after CHI, followed 21 days
Procedure: The study was conducted according to the guidelines of the Institutional Animal Care Committee of the Hebrew University. Male Sabra mice weighing 35 to 50 g were used in all experiments. Animals were kept under controlled light conditions with a 12 h/12 h light/dark cycle. Experimental closed head injury (CHI) was induced using a modified weight drop device developed in our laboratory as described previously (Chen et al., 1996). At 1 h after CHI, the functional status of the mice was evaluated according to a set of 10 neurobehavioral tasks, namely the neurological severity score (NSS). This score is based on the ability of the mice to perform 10 different tasks (Beni-Adani et al., 2001) that evaluate their motor ability, balance, and alertness. One point is given for failing to perform a task. […] A score of 10 reflects maximal neurologic impairment, and a decrease of NSS during the recovery period indicates partial recovery of function.
Data was analyzed using the Prism 4.02 programme (GraphPad Software, San Deigo, Calif., USA). The data are expressed as mean±SEM and statistical significance was assessed with one way analysis of variance (ANOVA) followed by a Dunnett's post-hoc analysis for TNF-α levels. Nonparametric NSS values were compared between the two groups at each time point.
In this study four groups of mice were subjected to CHI (n=10/group and control n=9), after which the following agents were administered: • Group 1 (Control): Vehicle only (ethanol:cremophor:saline at ratio of 1:1:18), 1 h after CHI. • Group 2: HU-910, 0.1 mg/kg, dissolved in vehicle (1:1:18 ethanol:cremophor:saline), i.p. 1 h after CHI. • Group 3: HU-910, 1.0 mg/kg, dissolved in vehicle (1:1:18 ethanol:cremophor:saline), i.p. 1 h after CHI. • Group 4: HU-910, 10.0 mg/kg, dissolved in vehicle (1:1:18 ethanol:cremophor:saline), i.p. 1 h after CHI.
In this study four groups of mice were subjected to CHI (n=9/group), after which the following agents were administered: • Group 1 (Control): Vehicle only (ethanol:cremophor:saline at ratio of 1:1:18), 1 h after CHI. • Group 2: HU-910, 10 mg/kg, dissolved in vehicle (1:1:18 ethanol:cremophor:saline), i.p. 1 h after CHI. • Group 3: Specific CB2 antagonist SR144528 (N-[(1S)-endo-1,3,3-trimethylbicyclo[2.2.1]heptan-2-yl]-5-(4-chloro-3-methylphenyl)-1-(4-methylbenzyl)pyrazole-3 carboxamide), (see M. Rinaldi-Carmona, et al. J. Pharmacol. Exp. Ther. 284 (1998) 644-650), 1 mg/kg, i.p. 1 h after CHI. • Group 4: Specific CB2 antagonist (SR144528, N-[(1S)-endo-1,3,3-trimethylbicyclo[2.2.1]heptan-2-yl]-5-(4-chloro-3-methylphenyl)-1-(4-methylbenzy)pyrazole-3 carboxamide), 1 mg/kg, i.p. 1 h after CHI and HU-910 10 mg/kg administered 10 min after administration of antagonist.
In this study four groups of mice were subjected to CHI (n=7-8/group), after which the following agents were administered: • Group 1 (Control): Vehicle only (Dimethyl Sulfoxide (DMSO): Tween 80: Saline at ratio of 1:1:18), i.p. 1 h after CHI. • Group 2: HU-910, 10 mg/kg, dissolved in Vehicle, i.p. 1 h after CHI. • Group 3: Specific CB2 antagonist/inverse agonist AM630 (6-Iodo-2-methyl-1-[2-(4-morpholinyl)ethyl]-1H-indol-3-yl](4-methoxyphenyl)methanone) (Ross et al. 1999)), dissolved in Vehicle, 1 mg/kg, i.p. 1 h after CHI and HU-910, dissolved in Vehicle, 10 mg/kg administered 10 min after administration of antagonist/inverse agonist. • Group 4: Specific CB2 antagonist/inverse agonist AM630 (6-Iodo-2-methyl-1-[2-(4-morpholinyl)ethyl]-1H-indol-3-yl](4-methoxyphenyl)methanone), dissolved in Vehicle, 1 mg/kg, i.p. 1 h after CHI

human CB1 receptor = human CB1 receptor (Homo sapiens (Human), UniProt P21554); assay: Membrane competition binding assay with [3H]-CP 55,940, CHO-CB1 membranes; conditions: CHO-CB1 cellular membranes, 2.5 nM [3H]-CP 55,940; read-out: Competition Binding Assay CB1 Receptor Ki
Description: as §1, §2, §3, §4, §5, §6

Chain of human CB1 receptor (P21554 whole entry): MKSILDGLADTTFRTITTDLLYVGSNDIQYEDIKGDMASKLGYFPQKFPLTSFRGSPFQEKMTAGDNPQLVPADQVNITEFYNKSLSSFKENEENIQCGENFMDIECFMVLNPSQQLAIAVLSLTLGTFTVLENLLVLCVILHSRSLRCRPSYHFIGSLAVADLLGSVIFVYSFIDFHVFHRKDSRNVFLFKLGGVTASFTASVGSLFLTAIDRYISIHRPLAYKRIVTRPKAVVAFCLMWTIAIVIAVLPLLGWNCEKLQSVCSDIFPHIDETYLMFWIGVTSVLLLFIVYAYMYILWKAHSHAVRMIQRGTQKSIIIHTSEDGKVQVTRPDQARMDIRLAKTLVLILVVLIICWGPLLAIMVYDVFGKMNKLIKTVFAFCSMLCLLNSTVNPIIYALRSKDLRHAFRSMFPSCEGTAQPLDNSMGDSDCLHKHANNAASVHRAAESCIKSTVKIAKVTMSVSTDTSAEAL

SMILES | pKi (human CB2 receptor) | beneficial effect on ΔNSS in the presence of AM630 (closed head injury (CHI); AM630 1 mg/kg i.p. 1 h after CHI, HU-910 10 mg/kg 10 min later, 1 h to 28 days) | extent of recovery ΔNSS=NSS(1 h)−NSS(t) (closed head injury (CHI); HU-910 10 mg/kg i.p. 1 h after CHI, days 5 and 7 post injury, vs vehicle or 0.1 and 1 mg/kg) | beneficial effect on ΔNSS in the presence of SR144528 (closed head injury (CHI); SR144528 1 mg/kg i.p. 1 h after CHI, HU-910 10 mg/kg 10 min later) | most effective dose (recovery, ΔNSS) (closed head injury (CHI)) [mg/kg] | pKi (human CB1 receptor) | recovery, Neurological Severity Score (ΔNSS) (closed head injury (CHI); HU-914 5 mg/kg i.p. 1 h after CHI, starting at 3 days post injury, vs vehicle or 10 and 20 mg/kg) | recovery ΔNSS in the presence of SR144528 (closed head injury (CHI); SR144528 1 mg/kg i.p. 1 h after CHI, HU-914 5 mg/kg 10 min later, 24 h to 28 day)
CCCCCCC(C)(C)c1cc(OC)c(C2=C[C@H]3CC[C@]2(CO)C3(C)C)c(OC)c1 [HU-910, (1S,4R)-(2-(2,6-dimethoxy-4-(2-methyloctan-2-yl)phenyl)-7,7-dimethylbicyclo[2.2.1]hept-2-en-1-yl)methanol] | 8.22 | reduced to a similar extent | significant greater recovery | reduced to a similar extent | 10 | 5.86 |  | 
CCCCCCC(C)(C)c1cc(OC)c(C2=C[C@H]3CC[C@]2(C(=O)O)C3(C)C)c(OC)c1 [HU-914, (1S,4R)-2-(2,6-dimethoxy-4-(2-methyloctan-2-yl)phenyl)-7,7-dimethylbicyclo[2.2.1]hept-2-ene-1-carboxylic acid] | 5.82 |  |  |  | 5 | < 4.30 | significant greater recovery | abolished and reduced to a similar extent as in the control group
